Key:
SSTR3 [1] = molecular target: T1, SSTR3 (Homo sapiens, UniProt P32745); test: SSTR3 functional antagonist assay: cAMP production with FSK + SS-14 in SSTR3 stable CHO cells; type: cell-based, human or mouse; design: […]; conditions: […] FSK + 100 nM SS-14
Protocol: The effects of compounds that bind to human and murine SSTR3 with various affinities on the functional activity of the receptor were assessed by measuring cAMP production in the presence of Forskolin (FSK) along or FSK plus SS-14 in SSTR3 expressing CHO cells. FSK acts to induce cAMP production in these cells by activating adenylate cyclases, whereas SS-14 suppresses cAMP production in the SSTR3 stable cells by binding to SSTR3 and the subsequent inhibition of adenylate cyclases via an alpha subunit of GTP-binding protein (Gαi).
The amount of cAMP produced during the incubation was also quantified with the Lance cAMP assay. […] The % Inhibition of each compound was calculated using the following formula:
% Inhibition=[1−(unknown cAMP/FSK+SS-14 cAMP)]×100

SSTR3 [2] = molecular target: T1, SSTR3; test: SSTR3 receptor-ligand binding assay, (3-125I-Tyr11)-SRIF-14 radioligand, CHO-K1 cell membranes; design: expressed in transfected cells; membranes used; conditions: cloned human SSTR3, CHO-K1 membranes, 0.1 nM radioligand
Protocol: The receptor-ligand binding assays of all 5 subtype of SSTRs were performed with membranes isolated from Chinese hamster ovary (CHO)—K1 cells stably expressing the cloned human somatostatin receptors in 96-well format as previous reported.
The stable cell lines for SSTR1-SSTR5 were developed by stably transfecting with DNA for all five SSTRs using Lipofectamine. […] The assay buffer consisted of 50 mM TrisHCl (pH 7.8) with 1 mM EGTA, 5 mM MgCl2, leupeptin (10 μg/mL), pepstatin (10 μg/mL), bacitracin (200 μg/mL), and aprotinin (0.5 μg/mL). CHO—K1 cell membranes, radiolabeled somatostatin, and unlabeled test compounds were resuspended or diluted in this assay buffer. Unlabeled test compounds were examined over a range of concentrations from 0.01 nM to 10,000 nM.

T1 sequence (P32745 whole entry): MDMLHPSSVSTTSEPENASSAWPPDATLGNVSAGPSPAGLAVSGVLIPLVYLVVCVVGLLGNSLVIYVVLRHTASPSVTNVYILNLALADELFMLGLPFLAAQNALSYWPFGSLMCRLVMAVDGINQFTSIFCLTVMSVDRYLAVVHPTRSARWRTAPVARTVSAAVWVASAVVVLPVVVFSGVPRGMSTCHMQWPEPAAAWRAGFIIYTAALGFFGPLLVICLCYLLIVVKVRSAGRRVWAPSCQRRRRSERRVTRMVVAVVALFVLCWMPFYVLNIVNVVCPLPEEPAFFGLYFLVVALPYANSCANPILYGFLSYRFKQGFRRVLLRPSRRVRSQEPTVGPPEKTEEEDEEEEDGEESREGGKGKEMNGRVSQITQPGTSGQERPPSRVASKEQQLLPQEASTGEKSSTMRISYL

Row | EC50 (SSTR3 [1]) [nM] | Ki (SSTR3 [2]) [nM] | Structure (SMILES)
1 | 11 | – | CCn1nc(C2(c3ccc(C#N)cc3)N[C@@H](c3nc(-c4ccc(F)cn4)c[nH]3)Cc3c2[nH]c2ccccc32)oc1=O (single isomer, unassigned) [Example 16]
2 | 12.5 | – | COCc1nc(C2(c3nnc(O)o3)N[C@@H](c3nc(-c4ccc(F)cn4)c[nH]3)Cc3c2[nH]c2ccccc32)no1 (single isomer, unassigned) [Example 39]
3 | 21.4 | – | CCn1nnc(C2(c3nn(C)c(=O)o3)N[C@@H](c3nc(-c4ccc(F)cn4)c[nH]3)Cc3c2[nH]c2ccccc32)n1 (single isomer, unassigned) [Example 46]
4 | 3 | – | CCn1nc(C2(c3noc(COC)n3)N[C@@H](c3nc(-c4ccc(F)cn4)c[nH]3)Cc3c2[nH]c2ccccc32)oc1=O (single isomer, unassigned) [Example 40]
5 | 29.1 | 31.4 | Cn1nc(C2(c3ccccc3)N[C@@H](c3nc(-c4ccc(F)cc4)c[nH]3)Cc3c2[nH]c2ccccc32)oc1=O (single isomer, unassigned) [Example 2]
6 | 18.9 | 9.2 | N#Cc1ccc(C2(c3nnc(O)o3)N[C@@H](c3nc(-c4ccc(F)cc4)c[nH]3)Cc3c2[nH]c2ccccc32)cc1 (mixture of isomers) [Example 13]
7 | 2000 | – | CCn1nnc(C2(c3nnc(O)o3)N[C@@H](c3nc(-c4ccc(F)cn4)c[nH]3)Cc3c2[nH]c2ccccc32)n1 (single isomer, unassigned) [Example 44]
8 | 63.4 | – | CCn1nc(C2(c3nnn(C)n3)N[C@@H](c3nc(-c4ccc(F)cn4)c[nH]3)Cc3c2[nH]c2ccccc32)oc1=O (single isomer, unassigned) [Example 48]
9 | 2.3 | 1.2 | Cn1cc(C2(c3nn(C)c(=O)o3)N[C@@H](c3nc(-c4ccc(F)cc4)c[nH]3)Cc3c2[nH]c2ccccc32)cn1 (single isomer, unassigned) [Example 23]
10 | 10.7 | 3.3 | Oc1nnc(C2(c3ccccc3)N[C@@H](c3nc(-c4ccc(F)cc4)c[nH]3)Cc3c2[nH]c2ccccc32)o1 (mixture of isomers) [Example 10]
11 | 0.2 | – | Cn1cc(C2(c3nnc(N)o3)N[C@@H](c3nc(-c4ccc(F)cc4)c[nH]3)Cc3c2[nH]c2ccccc32)cn1 (single isomer, unassigned) [Example 53]
12 | 2.6 | 4.2 | CCn1nc(C2(c3noc(C)n3)N[C@@H](c3nc(-c4ccc(F)cn4)c[nH]3)Cc3c2[nH]c2ccccc32)oc1=O (single isomer, unassigned) [Example 9]
13 | 1.1 | – | Cn1cc(C2(c3nnc(O)o3)N[C@@H](c3nc(-c4ccc(F)cc4)c[nH]3)Cc3c2[nH]c2ccccc32)cn1 (single isomer, unassigned) [Example 18]
14 | 680 | – | Cn1cc(C2(c3nnc(O)o3)N[C@@H](c3nc(-c4ccc(F)cn4)c[nH]3)Cc3c2[nH]c2ccccc32)cn1 (single isomer, unassigned) [Example 20]
15 | 18 | 23.7 | CCn1nc(C2(c3noc(C)n3)N[C@@H](c3nc(-c4ccc(F)cn4)c[nH]3)Cc3c2[nH]c2ccccc32)oc1=O (single isomer, unassigned) [Example 8]
16 | 0.8 | – | Cn1nc(C2(c3cnn(C4CC4)c3)N[C@@H](c3nc(-c4ccc(F)cn4)c[nH]3)Cc3c2[nH]c2ccccc32)oc1=O (single isomer, unassigned) [Example 59]
17 | 0.6 | – | Oc1nnc(C2(c3cnn(C4CC4)c3)N[C@@H](c3nc(-c4ccc(F)cn4)c[nH]3)Cc3c2[nH]c2ccccc32)o1 (single isomer, unassigned) [Example 37]
18 | 74.4 | – | CCn1nnc(C2(c3nn(C)c(=O)o3)N[C@@H](c3nc(-c4ccc(F)cn4)c[nH]3)Cc3c2[nH]c2ccccc32)n1 (single isomer, unassigned) [Example 47]
19 | 0.5 | 0.9 | CCOC(=O)Cn1nc(C2(c3cnn(CC)c3)N[C@@H](c3nc(-c4ccc(F)cn4)c[nH]3)Cc3c2[nH]c2ccccc32)oc1=O (single isomer, unassigned) [Example 34]

Row | EC50 (SSTR3 [1]) [nM] | Ki (SSTR3 [2]) [nM] | Structure (SMILES)
20 | 5.9 | 1.2 | Cn1nc(C2(c3ccccc3)NC(c3nc(-c4ccc(F)cn4)c[nH]3)Cc3c2[nH]c2ccccc32)oc1=O (single isomer, unassigned) [Example 12]
21 | 17.8 | – | Cc1nc(C2(c3nnc(N)o3)NC(c3nc(-c4ccc(F)cc4)c[nH]3)Cc3c2[nH]c2ccccc32)no1 (mixture of isomers) [Example 56]
22 | 3.2 | – | COCc1nc(C2(c3nn(C)c(=O)o3)N[C@@H](c3nc(-c4ccc(F)cn4)c[nH]3)Cc3c2[nH]c2ccccc32)no1 (single isomer, unassigned) [Example 42]
23 | 3.8 | 0.8 | Cn1nc(C2(c3ccccc3)N[C@@H](c3nc(-c4ccc(F)cc4)c[nH]3)Cc3c2[nH]c2ccccc32)oc1=O (single isomer, unassigned) [Example 1]
24 | 6.1 | – | Cn1cc(C2(c3nn(C)c(=O)o3)N[C@@H](c3nc(-c4ccc(F)cc4)c[nH]3)Cc3c2[nH]c2ccccc32)cn1 (single isomer, unassigned) [Example 22]
25 | 19 | – | CCn1nc(C2(c3noc(COC)n3)N[C@@H](c3nc(-c4ccc(F)cn4)c[nH]3)Cc3c2[nH]c2ccccc32)oc1=O (single isomer, unassigned) [Example 41]
26 | 1.9 | 1.1 | CCn1cc(C2(c3nn(C)c(=O)o3)N[C@@H](c3nc(-c4ccc(F)cc4)c[nH]3)Cc3c2[nH]c2ccccc32)cn1 (mixture of isomers) [Example 36]
27 | 8 | 13.3 | Cn1cc(C2(c3nnc(N)o3)N[C@@H](c3nc(-c4ccc(F)cc4)c[nH]3)Cc3c2[nH]c2ccccc32)cn1 (single isomer, unassigned) [Example 52]
28 | 47.5 | – | Cn1cc(C2(c3nnc(O)o3)N[C@@H](c3nc(-c4ccc(F)cc4)c[nH]3)Cc3c2[nH]c2ccccc32)cn1 (single isomer, unassigned) [Example 19]
29 | 32.6 | – | CCn1nnc(C2(c3nnc(O)o3)N[C@@H](c3nc(-c4ccc(F)cn4)c[nH]3)Cc3c2[nH]c2ccccc32)n1 (single isomer, unassigned) [Example 45]
30 | 1.9 | 0.9 | CSc1nnc(C2(c3cnn(C)c3)N[C@@H](c3nc(-c4ccc(F)cc4)c[nH]3)Cc3c2[nH]c2ccccc32)o1 (some centres unmarked) [Example 58]
31 | 24.6 | – | Cc1nc(C2(c3nnc(O)o3)NC(c3nc(-c4ccc(F)cc4)c[nH]3)Cc3c2[nH]c2ccccc32)no1 (mixture of isomers) [Example 38]
32 | 74.1 | 52.2 | Cn1nc(C2(c3ccccc3)NC(c3nc(-c4ccc(F)cn4)c[nH]3)Cc3c2[nH]c2ccccc32)oc1=O (single isomer, unassigned) [Example 11]
33 | 1.8 | – | CCn1cc(C2(c3nnc(O)o3)NC(c3nc(-c4ccc(F)cc4)c[nH]3)Cc3c2[nH]c2ccccc32)cn1 (mixture of isomers) [Example 35]
34 | 5.4 | 1.2 | Cn1nc(C2(c3ccc(C#N)cc3)NC(c3nc(-c4ccc(F)cc4)c[nH]3)Cc3c2[nH]c2ccccc32)oc1=O (single isomer, unassigned) [Example 14]
35 | 25.6 | – | CCn1nc(C2(c3ccc(C#N)cc3)N[C@@H](c3nc(-c4ccc(F)cn4)c[nH]3)Cc3c2[nH]c2ccccc32)oc1=O (single isomer, unassigned) [Example 17]
36 | 30.5 | 2 | Cn1nc(C2(c3ccc(C#N)cc3)NC(c3nc(-c4ccc(F)cc4)c[nH]3)Cc3c2[nH]c2ccccc32)oc1=O (single isomer, unassigned) [Example 15]
37 | 1070 | – | Cn1nnc(C2(c3nnc(O)o3)N[C@@H](c3nc(-c4ccc(F)cn4)c[nH]3)Cc3c2[nH]c2ccccc32)n1 (single isomer, unassigned) [Example 43]
38 | 0.8 | – | CSc1nnc(C2(c3cnn(C)c3)NC(c3nc(-c4ccc(F)cn4)c[nH]3)Cc3c2[nH]c2ccccc32)o1 (mixture of isomers) [Example 57]

Reference: patent US20100184799A1, “OXADIAZOLE BETA CARBOLINE DERIVATIVES AS ANTIDIABETIC COMPOUNDS” (priority 2009, published 2010)
